Entries after “also recorded” stand apart in the source; their conditions may differ.
Experiments:
[1] = test system: SDS-induced skin roughness, medial forearm; experiment: Human skin roughness induced by 10% SDS (Example 18); assay type: in vivo
Procedure: Two subjects were administered with substances that promote the self-renewal ability of epidermal stem cells (apocynin, ebselen, and celecoxib) using a test of skin roughness induced by 10% sodium lauryl sulfate (SDS) solution (a test that serves as a standard for chemical-induced skin damage in humans), and the effect of the skin roughness-preventing or -ameliorating agent in improving skin roughness was evaluated. Six 1.5-cm square areas were placed on the subject's medial forearm, and each was subjected to the treatments below. • SDS non-treated (70% ethanol treatment) group • SDS treatment+solvent (50% ethanol/PBS) application group. • SDS treatment+apocynin (200 μM) solution application group • SDS treatment+ebselen (0.25%) solution application group. • SDS treatment+celecoxib (2%) solution application group A cotton ball permeated with 500 μL of 10% SDS solution (dissolved in 70% ethanol) was applied to the test area for 30 minutes each on day 0 and day 1. Apocynin was applied on day 0 before SDS treatment, applied after treatment, and then applied to the test area once daily until day 9. The TEWL at each test area was measured before and after SDS treatment, and daily from day 1 to day 7. For each area, the TEWL value before SDS treatment was subtracted from the TEWL value on the measurement day, and this value was defined as “ΔTEWL”, and this value was used for evaluation. The test area was photographed with a digital camera and with PRIMOS-CR (Canfield Scientific, Inc., USA, Integral Corporation), a high-resolution three-dimensional image analyzer. For the PRIMOS images, the Primos OMC3_22 software was used to measure the degree of skin roughness in terms of “Ry (maximum height)” and “Rz (ten-point average roughness)”, which are parameters representing surface roughness in the height direction. For each site, the value obtained by subtracting the Rz or Ry value of the SDS non-treated control from the Rz or Ry value on the measurement day was defined as “ΔRz” and “ΔRy”, and these values were used for evaluation.

[2] = test system: full thickness wounds in the skin of rodent tails; experiment: Full thickness wound healing in tail skin; assay type: in vivo, mice; conditions: day 0, day 14, day 21 (FIG. 12)
Procedure: To test the above hypothesis, the present inventors performed a full-layer wound healing experiment using the tail skin of aged wild-type mice. […] Forced expression of hCOL17A1 by basal layer keratinocytes in mice also promoted wound healing (FIG. 12). […] To confirm the beneficial effects in vivo, these drugs were administered to full thickness wounds in the skin of rodent tails.

[3] = test system: SDS-induced skin roughness; experiment: Skin roughness induced by 10% SDS in hairless mice (Examples 16, 17); assay type: in vivo, hairless mice (HOS: HR-1)
Source text: Using a skin irritation model induced by a 10% sodium lauryl sulfate (SDS) solution (a test that serves as a standard for chemical-induced skin damage), the present inventors administered a substance that promotes the competitive self-renewal ability of epidermal stem cells (apocynin) and evaluated the effect of the skin roughness-preventing or -ameliorating agent in improving skin roughness. After acclimation of hairless mice (HOS: HR-1) to the experimental environment, the mice were divided into the three groups below, so that the body weight values were nearly uniform. • SDS non-treated group (n=2) • SDS treatment+solvent application group (n=4) • SDS treatment+200 μM apocynin application group (n=4) On the back of hairless mice, a cotton ball soaked in 500 μL of 10% SDS solution (dissolved in 70% ethanol) was applied for 30 min on days 1, 2, 3, and 4. Apocynin was applied to the back every day from the day before the experiment until day 4. For each group of mice on the third day after the start of the experiment, TEWL was measured at specific sites on the back (two sites on the left side and right side symmetrically from the center of the spine) as described above. On the eighth day, the images were taken by PRIMOS-CR (Canfield Scientific, Inc., Integral Corporation), a high-resolution 3D image analysis system. […] Using a skin irritation model induced by 10% sodium lauryl sulfate (SDS) solution, the present inventors administered a substance that promotes the competitive self-renewal ability of epidermal stem cells (ebselen) and evaluated the effect of the skin roughness-preventing or -ameliorating agent in improving skin roughness. […] For each group of mice on the eighth day after the start of the experiment, TEWL was measured at specific sites on the back (two sites on the left side and right side symmetrically from the center of the spine) as described above. […]

UVB-irradiated back skin = experiment: Barrier function after UVB irradiation (Example 12); assay type: in vivo, Hairless mice HOS: HR-1
Procedure: Hairless mice HOS: HR-1 females (7 weeks old) were acclimatized to the experimental environment and then grouped into the 6 groups below, so that the body weight values were nearly uniform. • No ultraviolet irradiation group (n=2) • Ultraviolet (UVB) irradiation+solvent application group (n=4). • Ultraviolet (UVB) irradiation+200 nM apocynin application group (n=4). • Ultraviolet (UVB) irradiation+200 μM apocynin application group (n=4). • Ultraviolet (UVB) irradiation+2 μM Y-27632 application group (n=4). • Ultraviolet (UVB) irradiation+20 μM Y-27632 application group (n=4) In the above solution application group, aqueous solutions of each preparation were applied to hairless mice on their back once a day for five days, starting from the day before ultraviolet irradiation. UVB irradiation was carried out using a Yayoi ultraviolet irradiation system (Y-UV-Lab-K-D5 lamp type) at an intensity of 150 mJ/cm^2 once a day. The stratum corneum water content and TEWL of the irradiated area were measured for each group of mice on the fourth day after the start of ultraviolet irradiation. The measurements were performed using Corneometer CM825 and Tewameter TN300 (Courage+Khazaka, Integral Corporation, Germany) at specific sites on the back of the mice.

[4] = apocynin 200 μM, ebselen 0.25%, celecoxib 2%
[5] = eighth day, surface of the back, compared to the solvent-applied control group

`COc1cc(C(C)=O)ccc1O` [Apocynin] was tested, and the “skin roughness (analysis of skin texture from high-resolution photographs)” value [1, 4] was “significantly reduced”, the ΔRy [1, 4] was “significantly decreased” and the ΔRz [1, 4] was “significantly decreased”. The ΔTEWL [1, 4] was “significantly decreased”, the “pigmentation / healing of the affected area” value ([1]; day 16, apocynin 200 μM (FIG. 31)) was “healed; also recorded: almost no pigmentation” and the “wound repair (unrepaired wound area)” value [2] was “significantly accelerated; also recorded: significantly promote the wound repair process”. The “TEWL on the back” value ([3]; 200 μM apocynin, third day, compared to the solvent-applied control group (FIG. 28)) was “significantly lower”, the “Ra (arithmetic mean roughness)” value [3, 5] was “significantly reduced” and the “Rz (ten-point average roughness)” value [3, 5] was “significantly reduced”. The “TEWL after ultraviolet irradiation” value (UVB-irradiated back skin; 200 µM administration group, UVB, fourth day (FIG. 21)) was “significantly lower” and the “water content of the stratum corneum after ultraviolet irradiation” value (UVB-irradiated back skin; 200 μM applied, UVB 150 mJ/cm^2, fourth day (FIG. 21)) was “significantly higher”.
